Results taken from ChEMBL document CHEMBL5608184, “Discovery and mechanistic insights into thieno[3,2-d]pyrimidine and heterocyclic fused pyrimidines inhibitors targeting tubulin for cancer therapy” (Eur J Med Chem, 2024).

Key:
SK-OV-3 [1] = test: Induction of cell cycle arrest at G2/M phase in human SK-OV-3 cells at 5 nM incubated for 24 hrs by PI staining based flow cytometry (reference value: 30.13 %); format: functional
SK-OV-3 [2] = test: Inhibition of cell migration in human SK-OV-3 cells assessed as relative wound density at 2.5 nM incubated for 24 hrs by wound healing assay (reference value: 61.61 %); format: functional; design: scale not given: the % may be the effect or the level left

COc1ccc(N(C)c2nc(Cl)nc3ccn(C)c23)cc1
Activity (SK-OV-3 [1]): 87.47%
Activity (SK-OV-3 [2]): 6.33%
